Patent US20170239212A1, “[…] AND USE THEREOF AS ANTIVIRAL AGENTS” (priority 2014, published 2017)

Assays:
[1] = system: LNCaP human prostate cancer cells; assay: Apoptosis of LNCaP cells (flow cytometry, Yo-Pro-1/7-AAD); assay type: cell-based; details: 48 hr; for Induction of apoptosis in LNCaP cells: compound alone
Procedure: FIGS. 12A-12D show the effect of different compounds on the proliferation and apoptosis of LNCaP cells. […] Time-elapsed images were taken with an Incucyte imaging system every hour for 4 days. The proliferation of LNCaP cells is presented as increase in confluency (read by the instrument) at 80 hrs. Data represent the means±SEM of three independent experiments. […] Apoptosis was measured 2 days after treatment by flow cytometry using 7-AAD and Yo-Pro-1 as described in Materials and Methods. Data represent the means±SEM of three independent experiments.
LNCaP cells treated for 48 hours with the different drugs or with DMSO as control were washed and re-suspended in phosphate buffered saline. Yo-Pro-1 (Invitrogen, Carlsbad, Calif.) was added to a final concentration of 1 μM and the cells were incubated for 20 min at 4° C. in the dark. 7-Aminoactinomycin D (7-AAD) (Invitrogen, Carlsbad, Calif.) was then added at a 5 μg/mL final concentration 10 minutes before analysis by flow cytometry using the FACSCalibur system (Becton Dickinson, Mountain View, Calif.). Data were analyzed with FlowJo 7 (Tree Star Inc., Ashland, Oreg.). The Yo-Pro-1 positive cells were considered apoptotic and were expressed as % of total cells. Western blot analysis of treated LNCaP cell lysates was performed as described previously using rabbit anti-cFos, rabbit anti-PKC delta, rabbit anti-phospho-tyrosine 311 of PKC delta or rabbit anti-3-actin antibodies.

[2] = system: U937 cells; assay: Inhibition of U937 cell proliferation; assay type: cell-based, human; details: for Block of PMA inhibition of U937 cell proliferation: 10 nM PMA with different concentrations of compound; for Inhibition of U937 cell proliferation (total cells as % of control): compound alone, 72 hours
Procedure: (§1) U937 cells (Sundstrom, C.; Nilsson, K.: Establishment and characterization of a human histiocytic lymphoma cell line (U-937). Int. J. Cancer 1976, 17: 565-577), purchased from ATCC (Manassas, Va.) and cultured in RPMI-1640 medium supplemented with 10% FBS (ATCC, Manassas, Va.), were plated in 35 mm dishes at a density of 2×10^5 living cells/ml and treated with different concentrations of the drugs or DMSO. After 72 hours, the number of cells in the supernatant (non-attached cells) and the number of attached cells (after trypsinization) were counted using a Beckman particle counter (Beckman Coulter Inc., Fullerton, Calif.). The number of attached cells is expressed as percent of total cells (FIGS. 8-10).
U937 cells were treated with PMA (0.1-100 nM), bryostatin 1 (1-1000 nM), the indicated compound (1-1000 nM), 10 nM PMA with different concentrations of bryostatin 1 (1-1000 nM) or 10 nM PMA with different concentrations of indicated compound (1-1000 nM). The number of attached and non-attached cells was counted and the number of total cells was expressed as % of control. The bars and error bars represent the average and the standard error of the mean of five independent experiments (FIGS. 8-10).
(§2) U937 cells (Sundstrom and Nilsson, 1976), purchased from ATCC (Manassas, Va.) and cultured in RPMI-1640 medium supplemented with 10% FBS (ATCC, Manassas, Va.), were plated in 35 mm dishes at a density of 1×10^5 living cells/ml and treated with different concentrations of the drugs or DMSO. After 72 hours, the number of cells in the supernatant (non-attached cells) and the number of attached cells (after trypsinization) were counted using a particle counter. The number of attached cells is expressed as percent of total cells.
U937 cells were treated with PMA (0.01-100 nM), bryostatin 1 (0.1-1000 nM), analogue 12 (MERLE 28) (0.1-1000 nM), 10 nM PMA with different concentrations of bryostatin 1 (0.1-1000 nM) or 10 nM PMA with different concentrations of analogue 12 (0.1-1000 nM). The numbers of attached and non-attached cells were counted and the number of total cells was expressed as % of control. The bars and error bars represent the average and the standard error of the mean of at least three independent experiments.
as §2
U937 cells were treated with PMA (0.1-100 nM), bryostatin 1 (1-1000 nM), the indicated compound (1-1000 nM), 10 nM PMA with different concentrations of bryostatin 1 (1-1000 nM) or 10 nM PMA with different concentrations of indicated compound (1-1000 nM). The number of attached and non-attached cells was counted and the number of total cells was expressed as % of control. The bars and error bars represent the average and the standard error of the mean of at least three independent experiments.

[3] = system: U937 cells; assay: Attachment of U937 cells; assay type: cell-based, human; details: 72 hours; for Block of PMA-induced attachment of U937 cells: 10 nM PMA with different concentrations of compound; for Attachment of U937 cells (attached cells as percent of total): compound alone
Procedure: as §1
U937 cells were treated with PMA (0.1-100 nM), bryostatin 1 (1-1000 nM), the indicated compound (1-1000 nM), 10 nM PMA with different concentrations of bryostatin 1 (1-1000 nM) or 10 nM PMA with different concentrations of indicated compound (1-1000 nM) for 72 hours. The number of attached cells and total cells were counted and the attached cells were graphed as percent of total cells. The bars and error bars represent the average and the standard error of the mean of five independent experiment (FIGS. 8-10).
as §2
U937 cells were treated with PMA (0.01-100 nM), bryostatin 1 (0.1-1000 nM), analogue 12 (MERLE 28) (0.1-1000 nM), 10 nM PMA with different concentrations of bryostatin 1 (0.1-1000 nM) or 10 nM PMA with different concentrations of analogue 12 (0.1-1000 nM). The number of attached cells and total cells were counted and the attached cells were graphed as percent of total cells. The bars and error bars represent the average and the standard error of the mean of at least three independent experiments.
as §2
U937 cells were treated with PMA (0.1-100 nM), bryostatin 1 (1-1000 nM), the indicated compound (1-1000 nM), 10 nM PMA with different concentrations of bryostatin 1 (1-1000 nM) or 10 nM PMA with different concentrations of indicated compound (1-1000 nM) for 72 hours. The number of attached cells and total cells were counted and the attached cells were graphed as percent of total cells. The bars and error bars represent the average and the standard error of the mean of at least three independent experiments.

Row | Compound | Block of PMA-induced apoptosis in LNCaP cells ([1]; 300 nM PMA combined with 1000 nM compound) | Induction of apoptosis in LNCaP cells [1] | Block of PMA inhibition of U937 cell proliferation [2] | Block of PMA inhibition of U937 cell proliferation ([2]; listed as bryostatin 1) | Inhibition of U937 cell proliferation (total cells as % of control) [2] | Inhibition of U937 cell proliferation (total cells as % of control) ([2]; listed as bryostatin 1) | Block of PMA-induced attachment of U937 cells [3] | Block of PMA-induced attachment of U937 cells ([3]; listed as bryostatin 1) | Attachment of U937 cells (attached cells as percent of total) [3] | Attachment of U937 cells (attached cells as percent of total) ([3]; listed as bryostatin 1)
1 | CCC/C=C/C=C/C(=O)O[C@H]1/C(=C/C(=O)OC)C[C@H]2C[C@H]([C@@H](C)O)OC(=O)C[C@H](O)C[C@@H]3C[C@H](OC(C)=O)C(C)(C)[C@](O)(C[C@@H]4C/C(=C/C(=O)OC)C[C@H](/C=C/C(C)(C)[C@]1(O)O2)O4)O3 [Bryostatin 1] | largely blocked the induction of apoptosis by PMA | had little effect | blocks the effect of the phorbol ester | able to block the effect of PMA in a dose dependent manner | has much less effect on either response | not strongly antiproliferative | blocks the effect of the phorbol ester | blocks the effect of the phorbol ester in a dose-dependent manner | has much less effect on either response | much diminished effect
2 | CCCCCCCCCCCCCC(=O)O[C@@H]1[C@@H](C)[C@@]2(O)[C@@H](C=C(CO)C[C@]3(O)C(=O)C(C)=C[C@@H]23)[C@@H]2C(C)(C)[C@]12OC(C)=O [PMA, phorbol 12-myristate 13-acetate] | – | induced apoptosis | – | – | inhibits cell proliferation | – | – | – | induces attachment | –
